Our source for the IC50 values is patent US11040035B2, “3-oxo-2,6-diphenyl-2,3-dihydropyridazine-4-carboxamides” (BAYER PHARMA AKTIENGESELLSCHAFT, priority 2016, dated 2021).

By IC50 is commonly meant the concentration that inhibits the measured activity by half.

Experiment [1] deals with T1, AHR (Homo sapiens, UniProt P35869).
T1 sequence (P35869 11-848): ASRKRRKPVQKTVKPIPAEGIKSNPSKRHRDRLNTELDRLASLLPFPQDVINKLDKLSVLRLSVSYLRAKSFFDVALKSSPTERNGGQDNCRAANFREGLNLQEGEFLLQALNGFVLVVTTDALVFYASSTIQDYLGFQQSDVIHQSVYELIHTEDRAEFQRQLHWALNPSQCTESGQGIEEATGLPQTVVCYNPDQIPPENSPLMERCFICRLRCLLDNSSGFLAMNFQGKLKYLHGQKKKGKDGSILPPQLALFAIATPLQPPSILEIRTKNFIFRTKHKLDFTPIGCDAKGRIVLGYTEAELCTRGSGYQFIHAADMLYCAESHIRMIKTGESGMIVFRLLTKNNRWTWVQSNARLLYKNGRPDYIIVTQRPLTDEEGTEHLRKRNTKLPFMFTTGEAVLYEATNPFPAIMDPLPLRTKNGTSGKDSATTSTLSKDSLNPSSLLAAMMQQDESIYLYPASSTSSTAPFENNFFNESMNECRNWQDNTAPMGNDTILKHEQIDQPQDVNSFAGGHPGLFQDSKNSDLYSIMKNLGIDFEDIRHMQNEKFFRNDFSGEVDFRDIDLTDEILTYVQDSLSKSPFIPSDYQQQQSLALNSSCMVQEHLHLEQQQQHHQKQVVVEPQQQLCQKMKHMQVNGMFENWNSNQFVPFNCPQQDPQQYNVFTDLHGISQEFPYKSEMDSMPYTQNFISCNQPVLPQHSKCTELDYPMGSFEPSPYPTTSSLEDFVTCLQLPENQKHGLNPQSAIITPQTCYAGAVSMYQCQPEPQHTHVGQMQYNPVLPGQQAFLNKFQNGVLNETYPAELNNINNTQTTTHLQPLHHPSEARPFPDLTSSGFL
The experiment is described as follows: In vitro assay 1: antagonism in human cell line (transactivation assay, kynurenic acid prestimulated). The note with it: Assay 1: AHR-luc Hum Antagonism IC50 [M], 150 μM kynurenic acid, 20 hours, firefly luciferase.

The target of experiment [2] is T1, AHR. Briefly: In vitro assay 2: agonism in human cell line (transactivation assay).
Setting [3] is: Assay 2: AHR-luc Hum Agonism IC50 [M], no kynurenic acid, 20 hours, firefly luciferase.
The mark [4] stands for this setting: read-out: Assay 2: AHR-luc Hum Agonism IC50, no kynurenic acid, 20 hours, firefly luciferase.

With `COc1ccc(-c2cc(C(=O)N[C@@H]3CCCC[C@H]3O)c(=O)n(-c3cccc(F)c3)n2)cc1` (relative stereo) [Example 152, 2-(3-Fluorophenyl)-N-trans-2-hydroxycyclohexyl-6-(4-methoxyphenyl)-3-oxo-2,3-dihydropyridazine-4-carboxamide], the results for the 50% inhibitory concentration (IC50) against AHR [1] and on AHR [2] (setting [3]) were 1.32e-07 M and > 2e-05 M, respectively.

As for `COc1ccc(-c2cc(C(=O)N[C@@H]3CCC[C@H]3O)c(=O)n(-c3cccc(F)c3)n2)cc1` (relative stereo) [Example 154, 2-(3-Fluorophenyl)-N-(trans-2-hydroxycyclopentyl)-6-(4-methoxyphenyl)-3-oxo-2,3-dihydropyridazine-4-carboxamide], the IC50 was 1.69e-07 M at AHR [1] and > 2e-05 M against AHR [2] (setting [3]).

For `O=C(N[C@@H]1CCCC(F)(F)[C@H]1O)c1cc(-c2ccc(Cl)cc2)nn(-c2cccc(F)c2)c1=O` (relative stereo) [Example 274, 6-(4-Chlorophenyl)-N-[(trans)-3,3-difluoro-2-hydroxycyclohexyl]-2-(3-fluorophenyl)-3-oxo-2,3-dihydropyridazine-4-carboxamide], the IC50 was 2.06e-08 M against AHR [1] and > 2e-05 M against AHR [2] (setting [3]).

As for `C[C@H](O)[C@H](C)NC(=O)c1cc(-c2ccc(Cl)c(F)c2)nn(-c2cccc(F)c2)c1=O` (relative stereo) [Example 290, rel-6-(4-Chloro-3-fluorophenyl)-2-(3-fluorophenyl)-N-[(2S,3S)-3-hydroxybutan-2-yl]-3-oxo-2,3-dihydropyridazine-4-carboxamide], the IC50 is 8.14e-08 M at AHR [1] and > 2e-05 M on AHR [2] (setting [3]).

Turning to `O=C(N[C@@H]1CCCC[C@@H]1O)c1cc(-c2ccc(Cl)c(F)c2)nn(-c2cccc(F)c2)c1=O` (relative stereo) [Example 291, 6-(4-Chloro-3-fluorophenyl)-2-(3-fluorophenyl)-N-(cis-2-hydroxycyclohexyl)-3-oxo-2,3-dihydropyridazine-4-carboxamide], the IC50 is 8.51e-08 M on AHR [1] and > 2e-05 M against AHR [2] (setting [3]).

Consider `C[C@H](O)[C@H](C)NC(=O)c1cc(-c2ccc(Cl)c(Cl)c2)nn(-c2cccc(F)c2)c1=O` (relative stereo) [Example 305, rel-6-(3,4-Dichlorophenyl)-2-(3-fluorophenyl)-N-[(2S,3S)-3-hydroxybutan-2-yl]-3-oxo-2,3-dihydropyridazine-4-carboxamide], for which the IC50 was 1.21e-07 M against AHR [1] and > 2e-05 M against AHR [2] (setting [3]).

Regarding `C[C@H](O)[C@H](C)NC(=O)c1cc(-c2ccc(Cl)cc2)nn(-c2cc(Cl)cc(Cl)c2)c1=O` (relative stereo) [Example 312, 6-(4-Chlorophenyl)-2-(3,5-dichlorophenyl)-N-[(2S,3S)-3-hydroxybutan-2-yl]-3-oxo-2,3-dihydropyridazine-4-carboxamide], the IC50 on AHR [1] was 5.88e-07 M; against AHR [2] (setting [3]), > 2e-05 M.

Turning to `O=C(N[C@H]1COC[C@@H]1O)c1cc(-c2ccc(N3CCOCC3)cc2)nn(-c2cccc(F)c2)c1=O` (relative stereo) [Example 378, rel-2-(3-fluorophenyl)-N-[(3R,4S)-4-hydroxytetrahydrofuran-3-yl]-6-[4-(morpholin-4-yl)phenyl]-3-oxo-2,3-dihydropyridazine-4-carboxamide], the figures for the half-maximal inhibitory concentration (IC50) against AHR [1] and against AHR [2] (setting [3]) were 2.48e-07 M and > 2e-05 M, respectively.

On to `CN1C[C@H](O)[C@H](NC(=O)c2cc(-c3ccc(Cl)cc3)nn(-c3cccc(F)c3)c2=O)C1` (relative stereo) [Example 388, 6-(4-chlorophenyl)-2-(3-fluorophenyl)-N-[cis-4-hydroxy-1-methylpyrrolidin-3-yl]-3-oxo-2,3-dihydropyridazine-4-carboxamide], for which the results for the IC50 at AHR [1] and against AHR [2] (setting [3]) were 6.9e-07 M and > 2e-05 M, respectively.

Consider `COCC(O)CNC(=O)c1cc(-c2ccc(Cl)cc2)nn(-c2cccc(F)c2)c1=O` (single isomer, unassigned) [Example 32, 6-(4-Chlorophenyl)-2-(3-fluorophenyl)-N-(2-hydroxy-3-methoxypropyl)-3-oxo-2,3-dihydropyridazine-4-carboxamide], for which the IC50 is 1.81e-07 M against AHR [1] and > 2e-05 M against AHR [2] (setting [3]).

With `COCC(O)CNC(=O)c1cc(-c2ccc(Cl)cc2)nn(-c2cccc(F)c2)c1=O` (single isomer, unassigned) [Example 33, 6-(4-Chlorophenyl)-2-(3-fluorophenyl)-N-(2-hydroxy-3-methoxypropyl)-3-oxo-2,3-dihydropyridazine-4-carboxamide], the IC50 against AHR [1] is 2.11e-07 M; at AHR [2] (setting [4]) it was > 2e-05 M.

`O=C(NC(CO)C1CCOC1)c1cc(-c2ccc(Cl)cc2)nn(-c2cccc(F)c2)c1=O` (single isomer, unassigned) [Example 39]: the IC50 was 2.76e-08 M against AHR [1] and > 2e-05 M at AHR [2] (setting [3]).

`O=C(NC(CO)C1CCOC1)c1cc(-c2ccc(Cl)cc2)nn(-c2cccc(F)c2)c1=O` (single isomer, unassigned) [Example 40, 6-(4-Chlorophenyl)-2-(3-fluorophenyl)-N-[2-hydroxy-1-(tetrahydrofuran-3-yl)ethyl]-3-oxo-2,3-dihydropyridazine-4-carboxamide]: the IC50 was 1.17e-07 M at AHR [1] and > 2e-05 M on AHR [2] (setting [4]).

In the case of `O=C(NC(CO)C1CCOC1)c1cc(-c2ccc(Cl)cc2)nn(-c2cccc(F)c2)c1=O` (single isomer, unassigned) [Example 41, 6-(4-Chlorophenyl)-2-(3-fluorophenyl)-N-[2-hydroxy-1-(tetrahydrofuran-3-yl)ethyl]-3-oxo-2,3-dihydropyridazine-4-carboxamide], the IC50 at AHR [1] is 2.15e-07 M; at AHR [2] (setting [4]), > 2e-05 M.

As to `O=C(NC(CO)C1CCOC1)c1cc(-c2ccc(Cl)cc2)nn(-c2cccc(F)c2)c1=O` (single isomer, unassigned) [Example 42, 6-(4-Chlorophenyl)-2-(3-fluorophenyl)-N-[2-hydroxy-1-(tetrahydrofuran-3-yl)ethyl]-3-oxo-2,3-dihydropyridazine-4-carboxamide], the IC50 against AHR [1] was 3.44e-07 M; on AHR [2] (setting [4]) it was > 2e-05 M.

For the compound `O=C(NCC(O)C(F)(F)F)c1cc(-c2ccc(Cl)cc2)nn(-c2cc(F)cc(F)c2)c1=O` (single isomer, unassigned) [Example 46, 6-(4-Chlorophenyl)-2-(3,5-difluorophenyl)-3-oxo-N-(3,3,3-trifluoro-2-hydroxypropyl)-2,3-dihydropyridazine-4-carboxamide], the IC50 against AHR [1] was 5.64e-08 M; on AHR [2] (setting [4]), > 2e-05 M.

In the case of `Cc1ccc(-c2cc(C(=O)NCC(O)C(F)(F)F)c(=O)n(-c3cc(F)cc(F)c3)n2)cc1` (single isomer, unassigned) [Example 53, 2-(3,5-Difluorophenyl)-6-(4-methylphenyl)-3-oxo-N-(3,3,3-trifluoro-2-hydroxypropyl)-2,3-dihydropyridazine-4-carboxamide], the IC50 at AHR [1] was 8.85e-09 M; against AHR [2] (setting [3]), > 2e-05 M.

On to `O=C(NCC(O)C(F)(F)F)c1cc(-c2ccc(Cl)cc2)nn(-c2cccc(Cl)c2)c1=O` (single isomer, unassigned) [Example 63, 2-(3-Chlorophenyl)-6-(4-chlorophenyl)-3-oxo-N-(3,3,3-trifluoro-2-hydroxypropyl)-2,3-dihydropyridazine-4-carboxamide], for which the IC50 against AHR [1] was 8.99e-08 M; on AHR [2] (setting [3]), > 2e-05 M.

`O=C(NCC(O)C(F)(F)F)c1cc(-c2ccc(Cl)cc2)nn(-c2cccc(Cl)c2)c1=O` (single isomer, unassigned) [Example 64, 2-(3-Chlorophenyl)-6-(4-chlorophenyl)-3-oxo-N-(3,3,3-trifluoro-2-hydroxypropyl)-2,3-dihydropyridazine-4-carboxamide]: the IC50 is 3.66e-07 M on AHR [1] and > 2e-05 M on AHR [2] (setting [4]).

For the compound `CC(C)C(O)CNC(=O)c1cc(-c2ccc(Cl)cc2)nn(-c2cccc(Cl)c2)c1=O` (single isomer, unassigned) [Example 68, 2-(3-Chlorophenyl)-6-(4-chlorophenyl)-N-(2-hydroxy-3-methylbutyl)-3-oxo-2,3-dihydropyridazine-4-carboxamide], the IC50 on AHR [1] is 3.7e-07 M; against AHR [2] (setting [3]), > 2e-05 M.

Consider `CC(C)C(O)CNC(=O)c1cc(-c2ccc(Cl)cc2)nn(-c2cccc(Cl)c2)c1=O` (single isomer, unassigned) [Example 69, 2-(3-Chlorophenyl)-6-(4-chlorophenyl)-N-(2-hydroxy-3-methylbutyl)-3-oxo-2,3-dihydropyridazine-4-carboxamide], for which the IC50 is 4.41e-07 M against AHR [1] and > 2e-05 M at AHR [2] (setting [4]).
